Test [1] has as its system Schistosoma mansoni schistosomula. The test can be described thus: Schistosoma mansoni schistosomula phenotype screen in vitro. The note with it: for Schistosomula (juvenile infective form) worm screen phenotype 24 h / Schistosomula (juvenile infective form) worm screen phenotype 2 d / Schistosomula (juvenile infective form) worm screen phenotype 3 d / Schistosomula (juvenile infective form) worm screen phenotype 4 d: Second Set, 5 uM; for Phenotypes caused by positive control compounds: schistosomula. The text has this:
(§1) Puerto Rican isolates of S. mansoni using Biomphalaria glabrata snails and golden hamsters as intermediate and definitive hosts, respectively, were maintained and handled in the University of California-San Francisco Sandler Center for Tropical Medicine. Patent B. glabrata snails (6-8 weeks after exposure to 5-10 infectious miracidia) were induced to shed infective larvae (cercariae) under light stimulus into the surrounding water. Cercariae were washed in rounds of ice-cold water and concentrated through and over sieves of varying pore sizes. They were then mechanically sheared (separation of heads from tails) as described in Colley D G, et al. Exp Parasitol 1974, 35:44-51, in ice-cold Incomplete Medium 169 (as described in Basch P F. J Parasitol 1981, 67:179-185, minus FBS and antibiotics) by passing 15 times through a double headed 22-gauge syringe needle connected to two 10 mL syringes. The resulting cercarial heads (schistosomula) were separated from their tails by swirling in a petri dish. Concentrated schistosomula were added to a sterile 1.5 mL centrifuge tube and allowed to settle over ice. Schistosomula were transferred to a sterile environment and washed 4 times in Incomplete Medium 169 prior to plating.
(§2) Two sets of screening were performed. In the first set, compounds were screened against schistosomula and observations were made at 24 hours, 2 days, 3 days, 4 days, and 6 days. In the second set, compounds were screened against schistosomula with observations at 24 hours, 2 days, 3 days, and 4 days and adult worms at 7 hours, 24 hours, 4 days, and 6 days.
Plates contain 200 schistosomula/well in […] complete Basch medium and were maintained at 37° C. in a 5% CO2 atmosphere. All compounds were tested in duplicate with at least two experimental replicates. Compounds and control compounds were added to the plates using the Biomek FXp using 96-well disposable tips. Final concentration of DMSO in each well was 0.5%.
(§3) A semi-quantitative and controlled nomenclature for phenotypes that can arise as a result of compound insult to both schistosomula and adults was utilized (Abdulla M H, et al., PLoS Negl Trop Dis 2009, 3:e478). Phenotypes were recorded by visual inspection and on a flexible time basis but at least at 24 h and 4 day time-points in the case of large scale screening. […] To help eliminate bias, two screen analysts scored phenotypes ‘blind’ both to knowledge of the contents of each screening plate and the phenotypes scored by his/her colleague. Upon completing their individual assessments, each analyst's ‘hit sheet’ was then compared to derive a ‘consensus hit sheet’. Discrepancies in analysts' hit sheets were re-evaluated under the microscope to eventually make a consensus hit call.
(§4) Hyper-coiled and coiled represent a verbal description of the visual phenotype as compared to the DMSO control. The + and ++ and +++ means more of the phenotype which preceded it. The − means less of the phenotype which preceded it. Results

Test [2] relates to Schistosoma mansoni adult worms. The test can be described thus: Schistosoma mansoni adult worm phenotype screen in vitro. The note with it: for Adult worm screen phenotype 7 h / Adult worm screen phenotype 24 h / Adult worm screen phenotype 4 d / Adult worm screen phenotype 6 d*: Second Set, 5 uM; for Phenotypes caused by positive control compounds: adult worms.
Source text: as §1, §2
Given the delicacy and size (0.5-1.5 cm in length) of this stage all operations were performed manually by the Sandler Center. 24-well plates were set up with compound (final DMSO concentration=0.5%) containing approximately 5 pairs of worms (S. mansoni has separate sexes) in 2 mL complete Basch medium per well. Plates were maintained at 37° C. in a 5% CO2 atmosphere. All compounds were tested in duplicate with at least two experimental replicates.
as §3, §4

“Also recorded” adds a separate entry of the source.

Consider `N#Cc1ccc(Oc2ccc3c(c2)COB3O)nc1` [6-(1-hydroxy-1,3-dihydrobenzo[c][1,2]oxaborol-5-yloxy)nicotinonitrile], for which the “Schistosomula phenotype day 4” value in test [1] (First Set) is “O−, and R−”. Also, the “Schistosomula (juvenile infective form) worm screen phenotype 24 h” value in test [1] (24 h) is “R−, O−”. Also, in test [1], the “Schistosomula (juvenile infective form) worm screen phenotype 2 d” value was “R−, O−, and some and deg-M”; the “Schistosomula (juvenile infective form) worm screen phenotype 3 d” value was “O, some; also recorded: deg-M”; the “Schistosomula (juvenile infective form) worm screen phenotype 4 d” value is recorded as “O, some deg-M”. The “Adult worm screen phenotype 7 h” value in test [2] is reported as “O−”.

As for `O=C(Nc1ccc(Oc2ccc(Cl)cc2)c(Cl)c1)c1cc(I)cc(I)c1O` [rafoxanide, reference compound], the “Phenotypes caused by positive control compounds” value (“Phenotypes caused” below) was “dose-dependent, rapid and severe phenotypes” in test [1]; “dose-dependent, rapid and severe phenotypes” in test [2].

On to `O=C(Nc1ccc([N+](=O)[O-])cc1Cl)c1cc(Cl)ccc1O` [niclosamide, reference compound], for which the “Phenotypes caused” value in test [1] was “dose-dependent, rapid and severe phenotypes”; in test [2], “dose-dependent, rapid and severe phenotypes”.

For `O=C(C1CCCCC1)N1CC(=O)N2CCc3ccccc3C2C1` (centres unmarked) [PZQ, reference compound], the “Phenotypes caused” value was “dose-dependent, rapid and severe phenotypes” in test [1]; “dose-dependent, rapid and severe phenotypes” in test [2].

With `N#Cc1ccc(Oc2ccc3c(c2)COB3O)nc1OC1CCCC1` [2-Cyclopentyloxy-6-(1-hydroxy-1,3-dihydro-benzo[c][1,2]oxaborol-5-yloxy)-nicotinonitrile], in test [1], the “Schistosomula (juvenile infective form) worm screen phenotype 2 d” value was “O++, R−, and some and deg-M”; the “Schistosomula (juvenile infective form) worm screen phenotype 3 d” value was “O++, R−, and some and deg-M”; the “Schistosomula (juvenile infective form) worm screen phenotype 4 d” value is “O++, R−,; also recorded: some deg-M”. In addition, in test [2], the “Adult worm screen phenotype 7 h” value is reported as “O+”; the “Adult worm screen phenotype 24 h” value is listed as “O−”; the “Adult worm screen phenotype 4 d” value is reported as “v, slow, sex; also recorded: sep, on sides”; the “Adult worm screen phenotype 6 d*” value was “Dark, S,; also recorded: Partial D (Partial D=partial killing of worm population)”.

For the molecule `CC(C)OCCOc1nc(Oc2ccc3c(c2)COB3O)ccc1C#N` [D140, 6-(1-Hydroxy-1,3-dihydrobenzo[c][1,2]oxaborol-5-yloxy)-2-(2-isopropoxyethoxy)nicotinonitrile, reference compound], the “Schistosomula (juvenile infective form) worm screen phenotype 24 h” value in test [1] (24 h) is “R, O++,; also recorded: some deg-m”. In addition, in test [1], the “Schistosomula (juvenile infective form) worm screen phenotype 2 d” value is “O+++, and R−, and some and deg-M”; the “Schistosomula (juvenile infective form) worm screen phenotype 3 d” value is “O+++, R, and some and deg-M”; the “Schistosomula (juvenile infective form) worm screen phenotype 4 d” value is recorded as “O+++, R,; also recorded: some deg-M”. In test [2], the “Adult worm screen phenotype 7 h” value is “O++”; the “Adult worm screen phenotype 24 h” value is reported as “O++ sex sep”; the “Adult worm screen phenotype 4 d” value is “O, sex sep,”.

Take `CC(=O)CCCOc1nc(Oc2ccc3c(c2)COB3O)ccc1C#N` [D141, 6-(1-hydroxy-1,3-dihydrobenzo[c][1,2]oxaborol-5-yloxy)-2-(4-oxopentyloxy) nicotinonitrile, reference compound]: in test [1] (24 h), the “Schistosomula (juvenile infective form) worm screen phenotype 24 h” value is “R, O++,; also recorded: some deg-m”. Further, in test [1], the “Schistosomula (juvenile infective form) worm screen phenotype 2 d” value is “O+++, and R−, and some and deg-M”; the “Schistosomula (juvenile infective form) worm screen phenotype 3 d” value was “O+++, R, and some and deg-M”; the “Schistosomula (juvenile infective form) worm screen phenotype 4 d” value is listed as “O+++, R,; also recorded: some deg-M”. In addition, in test [2], the “Adult worm screen phenotype 7 h” value was “O++, and Sex sep (Sex sep=worm pairs have separated) and (violent and motion)”; the “Adult worm screen phenotype 24 h” value was “O++, Sex; also recorded: sep (violent; also recorded: motion)”; the “Adult worm screen phenotype 4 d” value was “O++, sex; also recorded: sep on sides,; also recorded: males dark”; the “Adult worm screen phenotype 6 d*” value is “Dark, S,; also recorded: Partial D (Partial D=partial killing of worm population)”.

As for `COc1nc(Oc2cc3c(cc2F)B(O)OC3)ccc1C#N` [6-(6-Fluoro-1-hydroxy-1,3-dihydrobenzo[c][1,2]oxaborol-5-yloxy)-2-methoxynicotinonitrile], in test [1] (First Set), the “Schistosomula phenotype day 6” value is “R O and some and partial D”. The “Schistosomula (juvenile infective form) worm screen phenotype 24 h” value in test [1] (24 h) is recorded as “R, O++,; also recorded: some deg-m”. In addition, in test [1], the “Schistosomula (juvenile infective form) worm screen phenotype 2 d” value was “O+++, and R−, and some and deg-M”; the “Schistosomula (juvenile infective form) worm screen phenotype 3 d” value is “O+++, and some and deg-M”; the “Schistosomula (juvenile infective form) worm screen phenotype 4 d” value is “O+++, some; also recorded: deg-M”. Also, in test [2], the “Adult worm screen phenotype 7 h” value is reported as “O++”; the “Adult worm screen phenotype 24 h” value is “O++ sex sep”; the “Adult worm screen phenotype 4 d” value is reported as “O+, sex sep; also recorded: males dark”; the “Adult worm screen phenotype 6 d*” value is “Dark, Partial D”.

Take `CC(C)OC(=O)c1ccc(Oc2ccc3c(c2)COB3O)c(F)c1` [5-(2-Fluoro-4-isopropyloxycarbonylphenoxy)-1-hydroxy-2,1-benzoxaborole]: in test [1] (First Set), the “Schistosomula phenotype day 4” value is reported as “O−, R”.

As to `N#Cc1ccc(Oc2ccc3c(c2)COB3O)c(OCC2CC2)c1` [3-(Cyclopropylmethoxy)-4-(1-hydroxy-1,3-dihydrobenzo[c][1,2]oxaborol-5-yloxy)benzonitrile], in test [1] (First Set), the “Schistosomula phenotype day 3” value is “O+ and partial D”.

For `COCCOc1nccc(Oc2ccc3c(c2)COB3O)c1C#N` [4-(1-Hydroxy-1,3-dihydro-benzo[c][1,2]oxaborol-5-yloxy)-2-(2-methoxyethoxy)-nicotinonitrile], the “Schistosomula phenotype 24 h” value in test [1] (First Set, 24 h) is “R (R=round) and O+”. In addition, in test [1] (First Set), the “Schistosomula phenotype day 3” value is “O+ and some and partial D”; the “Schistosomula phenotype day 6” value was “O+ R and Partial D (Partial D=partial killing of worm population)”.

Turning to `COCCNc1nc(Oc2ccc3c(c2)COB3O)ccc1C#N` [6-(1-Hydroxy-1,3-dihydro-benzo[c][1,2]oxaborol-5-yloxy)-2-(2-methoxy-ethylamino)-nicotinonitrile], the “Schistosomula phenotype day 6” value in test [1] (First Set) is “R O and some and partial D”.

Take `CC(C)OC(=O)c1ccc(Oc2ccc3c(c2)COB3O)nc1` [Isopropyl 6-(1-hydroxy-1,3-dihydrobenzo[c][1,2]oxaborol-5-yloxy)nicotinate]: the “Schistosomula phenotype day 2” value in test [1] (First Set, day 2) is “O, (O=overactive); also recorded: deg-m”. In test [1] (First Set), the “Schistosomula phenotype day 4” value was “O, R, and some and deg-m”; the “Schistosomula phenotype day 6” value is given as “O, R,; also recorded: Partial D (Partial D=partial killing of worm population)”.

Turning to `COCCNc1ccc(C#N)c(Oc2ccc3c(c2)COB3O)n1` [2-(1-Hydroxy-1,3-dihydro-benzo[c][1,2]oxaborol-5-yloxy)-6-(2-methoxy-ethylamino)-nicotinonitrile], the “Schistosomula phenotype day 6” value in test [1] (First Set) was “O+ R and Partial D (Partial D=partial killing of worm population)”.

For the origin of these results see US9499570B2, “Boron containing small molecules” (priority 2010, dated 2016).
